Patent publication US7517646B2, “Functional molecule and process for producing the same” (Fujitsu Limited, priority 2002, dated 2009)

Target: human albumin (Homo sapiens, UniProt P02768)
Experiment: affinity column filled with beads bound with human albumin; binding of the selected functional molecule
Conditions: functional molecule selected from the random polymer pool N20-M20-N20 on a human albumin affinity column
Experimental: First, an affinity column, which was filled with beads bound with human albumin as the target, was prepared and a solution containing the random polymer pool was passed through this column to leave at a specific condition and, then, the modified oligonucleotide sequence showing the affinity to the target adsorbed to the column (FIG. 3B). Subsequently, remained components other than the remained oligonucleotide sequence were removed by washing sufficiently with a buffer solution and the solution containing human albumin was passed through the column to select and collect the oligonucleotide containing the modified oligonucleotide random sequence (FIG. 3C). The step described above is the selecting step.
This selected modified oligonucleotide sequence was amplified by PCR followed by cloning to know the base sequence of the DNA. As the result, a portion of the base sequence of the determined modified oligonucleotide was “ATGCTCTAGCCCCT” (SEQ ID NO: 1) (FIG. 3D). The step described above is the determining step.
Translating this base sequence on the basis of the relation table presented “AU1GC6U4CU3AGC6C3CC5T” resulting in identification of a structure of the functional molecule (FIG. 3D). The step described above is the translating step.

Chain of human albumin (P02768 25-609): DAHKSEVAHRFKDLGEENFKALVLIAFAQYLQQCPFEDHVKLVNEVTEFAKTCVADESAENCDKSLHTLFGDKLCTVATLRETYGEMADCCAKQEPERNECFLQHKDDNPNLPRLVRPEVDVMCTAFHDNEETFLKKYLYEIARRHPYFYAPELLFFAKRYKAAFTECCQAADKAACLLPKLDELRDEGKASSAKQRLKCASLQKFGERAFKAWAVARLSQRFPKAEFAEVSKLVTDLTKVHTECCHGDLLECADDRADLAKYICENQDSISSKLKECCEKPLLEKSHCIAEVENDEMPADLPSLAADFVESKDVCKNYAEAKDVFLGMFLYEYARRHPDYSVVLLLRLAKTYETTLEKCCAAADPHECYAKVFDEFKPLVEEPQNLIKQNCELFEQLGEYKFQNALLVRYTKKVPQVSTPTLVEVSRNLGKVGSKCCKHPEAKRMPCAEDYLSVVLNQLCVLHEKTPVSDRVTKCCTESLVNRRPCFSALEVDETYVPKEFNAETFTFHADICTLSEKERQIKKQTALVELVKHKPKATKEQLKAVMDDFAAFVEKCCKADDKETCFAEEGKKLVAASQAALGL

For “AU1GC6U4CU3AGC6C3CC5T (AUGCUCUAGCCCCT; modified nucleotides, further chemistry not given here) [functional molecule]”, the “binding to human albumin” value was “bound specifically with human albumin”.
